According to PMC3227622, “GnRH receptor activation competes at a low level with growth signaling in stably transfected human breast cell lines” (BMC Cancer, 2011):
Entries after “also recorded” stand apart in the source; their conditions may differ. Where two headings read alike, the source gives them in different places.

Key:
[1] = design: method as in PMID 17512856, PMID 19213681; conditions: by inhibiting secretion of luteinizing hormone and follicle stimulating hormone; ref [1],[2]; cited from earlier work
SVCT-2 cells = experiment: SRB cell growth assay, SVCT-2 (rat GnRH receptor transfected); type: cell-based, human; conditions: for IC50: Homo sapiens; for IC50 / effect on cell growth of co-treatment / effect on cell growth: SRB; for effect on cell growth: single treatment
Protocol: (§1) Cells were cultured in Dulbecco's modified Eagle's medium (DMEM) with 10% fetal bovine serum. Medium for SVCT cells was supplemented with recombinant human insulin and hydrocortisone as specified by the suppliers (ECACC, UK). HEK293[SCL60] and WPE-1-NB26-8 cells were cultured as described elsewhere. Cells were transfected with a plasmid construct, pcDNA3.1(+) (neo) (Invitrogen, UK) containing a rat GnRH receptor cDNA insert, using Fugene 6 (Roche, UK) in Optimem-I (GIBCO, Invitrogen, UK). Cell clones growing in 6 cm dishes were picked using trypsinization in cloning cylinders (Sigma, UK) and sequentially expanded in multiwell plates and flasks prior to characterization. Sub-clones were generated by re-transfecting an individual clone with a 2.334 kb SV40 promoter-hygromycin phosphotransferase cDNA fragment excised from pcDNA3.1(-) (hygro) plasmid (Invitrogen, UK) using PvuII (Promega, UK) and purified following agarose gel electrophoresis.
(§2) Cells were seeded into 12 well plates and growth was monitored using the sulforhodamine B (SRB) staining assay described previously. Two milliliters culture medium per well was sufficient to sustain cell growth over all time courses investigated. Cells were treated with a dose range of Triptorelin or vehicle (20% propylene glycol, Sigma, UK). Similar experiments employing IGF-IR, EGFR/ErbB2 and PI3K inhibitors were performed. Assay measurements were performed in triplicate and were repeated on separate occasions. At each time point, cells were fixed by adding 1 ml 25% trichloroacetic acid to each well, stored at 4°C for 1 h before gently washing and drying plates. Fixed cells were stained with 0.4% SRB in 1% acetic acid, washed, dried and dissolved in 1 ml 0.1 M Tris pH 10. Absorbance measurements at 540 nm correlated with the number of cells per well.
(§3) Immuno-fluorescence data were analyzed by one-way ANOVA using Minitab version 16 (Minitab Inc., USA). Prism software (GraphPad, USA) was used to prepare graphs and to calculate EC50 and IC50 values. Western blots were quantified using ImageQuant software (GE Healthcare). Quantitative data were analyzed using on-line tools for T-test, http://easycalculation.com/statistics/standard-deviation.php and http://www.quantitativeskills.com/sisa/.

MCF-7hygro14 cells = experiment: SRB cell growth assay, MCF-7hygro14 (MCF-7-30-7hygro14); type: cell-based, human; conditions: for IC50: 96 h, without co-treatment, read-out: IC50 growth inhibition; for IC50 / effect on cell growth of co-treatment / effect on cell growth: 4 days
Protocol: as §1, §2, §3

HEK293[SCL60] cells = experiment: SRB cell growth assay, HEK293[SCL60]; type: cell-based, human; conditions: SRB (Triptorelin: after 4 days)
Excerpt: Most reagents were purchased from Sigma UK, including D-Trp^6GnRH-I (D-Trp^6-LHRH, Triptorelin). Antibodies for ERK-1/2 and phosphorylated-ERK1/2 were purchased from Cell Signaling Technology, UK and for β-actin, from Sigma, UK. Secondary antibodies conjugated to alkaline phosphatase were from Sigma, UK. Insulin like growth factor receptor-I (IGF-IR) inhibitor II, EGFR/ErbB2 inhibitor and phosphatidylinositol-4,5-bisphosphate 3-kinase γ (PI3Kγ) inhibitor were purchased from Calbiochem, UK. SVCT cells were purchased from ECACC, UK. MCF-7, MDA-MB-231, ZR-75-1, and T47D cells were from American Type Culture Collection (LGC, UK). The GnRH receptor stably transfected HEK293[SCL60] and prostate WPE-1-NB26-8 cell lines described elsewhere together with HEK293 cells were used as controls for comparison.
Cells were cultured in Dulbecco's modified Eagle's medium (DMEM) with 10% fetal bovine serum. Medium for SVCT cells was supplemented with recombinant human insulin and hydrocortisone as specified by the suppliers (ECACC, UK). HEK293[SCL60] and WPE-1-NB26-8 cells were cultured as described elsewhere. […]
Cells were seeded into 12 well plates and growth was monitored using the sulforhodamine B (SRB) staining assay described previously. […] Absorbance measurements at 540 nm correlated with the number of cells per well.

[2] = test system: p-ERK1/2 in MDA-MB-231-34 cells; experiment: p-ERK1/2 western blot, MDA-MB-231-34; type: cell-based, human; conditions: IGF-IR inhibitor II
Protocol: (§4) Cells were grown in six-well plastic culture plates until 50-70% confluent. Some samples were washed twice with phosphate buffered saline prior to incubation in serum-free medium overnight. Cells were treated with 100 nM Triptorelin or vehicle for specific time periods prior to lysis and harvesting. Samples were processed for western blotting as described previously using NP40 lysis buffer at 4°C [8, 9]. For quantitative data, time points were measured in triplicate. Blots were imaged by a Typhoon phosphor-imager (GE Healthcare, UK) using enhanced chemi-fluorescence detection and analyzed using ImageQuant software (GE Healthcare, UK).
as §3

[3] = test system: p-ERK1/2 in MCF-7hygro14 cells; experiment: p-ERK1/2 western blot, MCF-7hygro14; type: cell-based, human; conditions: for ERK1/2 re-phosphorylation after inhibitor wash-off: 1 h exposure to IGF-IR inhibitor II, then medium containing serum
Protocol: as §4, §3

[4] = test system: p-ERK1/2 in HEK293[SCL60] cells; experiment: p-ERK1/2 western blot, HEK293[SCL60]; type: cell-based, human; conditions: IGF-IR inhibitor washed off, without Triptorelin
Protocol: as §4, §3

MDA-MB-231-34 cells = experiment: SRB cell growth assay, MDA-MB-231-34; type: cell-based, human; conditions: SRB (Triptorelin 100 nM)
Protocol: as §1
Cells were seeded into 12 well plates and growth was monitored using the sulforhodamine B (SRB) staining assay described previously. Two milliliters culture medium per well was sufficient to sustain cell growth over all time courses investigated. Cells were treated with a dose range of Triptorelin or vehicle (20% propylene glycol, Sigma, UK). […] Absorbance measurements at 540 nm correlated with the number of cells per well.

[5] = 96 h, without co-treatment, 4 days, read-out: IC50 growth inhibition
[6] = co-treatment with 100 nM Triptorelin, 4 days
[7] = co-treatment with 100 nM Triptorelin, SRB
[8] = single treatment, SRB (Triptorelin 100 nM)
[9] = 15-20 μM IGF-IR inhibitor II, in the presence of serum
[10] = listed as IGF-I receptor inhibitor

goserelin
plasma levels of estrogen [1]: lowers plasma levels of estrogen

COc1cc2ncnc(Nc3ccc(OCc4ccccc4)cc3)c2cc1OC [EGFR/ErbB2 inhibitor, 4-(4-Benzyloxyanilino)-6,7-dimethoxyquinazoline]
IC50 (SVCT-2 cells; [5]): ~2 µM
growth inhibition relative to vehicle treated cells (SVCT-2 cells; after 4 days, SRB staining, 540 nm, DMEM with 10% fetal bovine serum, triplicate): 50%
effect on cell growth of co-treatment (SVCT-2 cells; [6]): did not significantly affect growth; also recorded: had no effect
effect on cell growth (SVCT-2 cells; 4 days): reduced SVCT-2 cell growth
IC50 (MCF-7hygro14 cells; Homo sapiens, SRB): ~5 µM
growth inhibition (MCF-7hygro14 cells; after 4 days, SRB): 50%
effect on cell growth of co-treatment (MCF-7hygro14 cells; [7]): no significant growth-inhibition; also recorded: did not significantly affect growth
effect on cell growth (MCF-7hygro14 cells; [8]): inhibited

O=C1NC(=O)C(=Cc2ccc3nccnc3c2)S1 [PI3Kγ inhibitor, 5-Quinoxalin-6-ylmethylene-thiazolidine-2,4-dione]
effect on cell growth (MCF-7hygro14 cells; PI3K inhibitor 5 nM to 7 μM, maximum dose 7 μM): not affected
effect on cell growth (MCF-7hygro14 cells; PI3K inhibitor 5 nM to 7 μM, maximum dose 7 μM, listed as PI3K inhibitor): did not affect growth; also recorded: lack of effect
effect on cell growth of co-treatment (MCF-7hygro14 cells; PI3K inhibitor up to 7 μM with 100 nM Triptorelin): no significant growth-inhibition
effect on cell growth of co-treatment (MCF-7hygro14 cells; PI3K inhibitor up to 7 μM with 100 nM Triptorelin, listed as PI3K inhibitor): did not significantly alter this result

COc1ccc(Cl)cc1NC(=O)Nc1cc(C)nc2ccccc12 [IGF-IR inhibitor II, N-(2-Methoxy-5-chlorophenyl)-N'-(2-methylquinolin-4-yl)-urea]
IC50 (SVCT-2 cells; [5]): ~11 µM
IC50 (SVCT-2 cells; co-treatment with 100 nM Triptorelin, read-out: apparent IC50 growth inhibition): ~9 µM
effect on cell growth of co-treatment (SVCT-2 cells; [6]): small additive effect; also recorded: increased growth inhibition marginally
effect on cell growth of co-treatment (SVCT-2 cells; co-treatment with 100 nM Triptorelin, 4 days, listed as IGF-IR inhibitor): small additive growth-inhibitory effect
effect on cell growth (SVCT-2 cells; 4 days): complete growth inhibition accompanied by cell death; also recorded: effectively inhibited
effect on cell growth (HEK293[SCL60] cells): inhibited
effect on levels of p-ERK1/2 [2]: did not elicit this effect
effect on levels of p-ERK1/2 ([2]; listed as IGF-IR inhibitor): not in MDA-MB-231-34 cells; also recorded: did not affect levels of p-ERK1/2
effect on levels of p-ERK1/2 [3, 9]: permanent decrease in levels of p-ERK1/2
time to decrease in p-ERK1/2 [3, 9]: ≤ 30 min
effect on levels of p-ERK1/2 ([3]; 15-20 μM IGF-IR inhibitor II, in the presence of serum, listed as IGF-IR inhibitor): rapid and sustained de-phosphorylation of ERK1/2; also recorded: rapid decrease in the levels of p-ERK1/2
ERK1/2 re-phosphorylation after inhibitor wash-off [3]: rapid hyper-phosphorylation of ERK1/2 followed by a slow decline
ERK1/2 re-phosphorylation after inhibitor wash-off [3, 10]: Rapid re-phosphorylation of ERK1/2
ERK1/2 re-phosphorylation after inhibitor wash-off ([3]; listed as IGF-IR inhibitor): rapid hyper-phosphorylation of ERK1/2, followed by a slow decline to basal levels
ERK1/2 re-phosphorylation after inhibitor wash-off [4]: hyper-phosphorylation of ERK1/2 did not occur
ERK1/2 re-phosphorylation after inhibitor wash-off [4, 10]: Re-phosphorylation of ERK1/2 was less marked
ERK1/2 re-phosphorylation after inhibitor wash-off ([4]; listed as IGFR-IR inhibitor II): rapid hyper-phosphorylation of ERK1/2 did not occur
IC50 (MCF-7hygro14 cells; Homo sapiens, SRB): ~17 µM
inhibition at 15 µM (MCF-7hygro14 cells; Homo sapiens, 15 μM, exposure up to 2 hours, PBS washout, growth over 4 days, read-out: growth inhibition after transient exposure and washout): < 10%
effect on cell growth of co-treatment (MCF-7hygro14 cells; [7]): no significant effect
growth inhibition after transient exposure and washout (MCF-7hygro14 cells; exposure 6 hours or more, PBS washout, growth over 4 days): more than 20%
effect on cell growth (MCF-7hygro14 cells; [8]): Growth and survival were inhibited; also recorded: growth-inhibition and cell death
effect on cell growth (MDA-MB-231-34 cells): inhibiting their growth also
